Laboratory results: article PMC5201116, “Bioactive Flavonoids and Catechols as Hif1 and Nrf2 Protein Stabilizers - Implications for Parkinson’s Disease” (Aging and Disease, 2016)

Assays:
[1] = Iron binding constant, calcein displacement assay; type: physicochemical; details: calcein displacement
Excerpt: Calcein displacement assay in the presence of varied concentrations of flavonoids and catechols has been used. Calcein release from its complex with iron was monitored by fluorescence as described in [26].

[2] = system: Neh2-luc reporter (SH-SY5Y cell line); assay: Neh2-luc reporter assay; type: cell-based; details: Homo sapiens, SH-SY5Y
[3] = system: HIF1 ODD-luc reporter (SH-SY5Y cell line); assay: HIF1 ODD-luc reporter assay; type: cell-based; details: Homo sapiens, SH-SY5Y
[4] = system: primary neuronal cultures treated with 5 mM HCA; assay: Glutathione depletion (HCA) model, MTT viability; type: cell-based, rat; details: glutathione depletion model, Fig. 5
Protocol: Primary neuronal cultures were prepared from the forebrains of Sprague-Dawley rat embryos (E17) and plated on 96 well plates at a 10^6 cells/ml density. After 24 hours, cells were rinsed with warm PBS and then placed in minimum Essential Medium (MEM; Life Technologies, Grand Island, NY) containing 5 mM HCA in the presence of a compound of interest at varied concentrations. Cells were incubated for 24 h or longer to see 90% cell death in HCA treated controls. Viability was assessed by the MTT (4,5-dimethylthiazol-2-yl)-2,5-diphenyltetrazolium bromide) assay.

HO-1 mRNA in brain = assay: Brain HO-1 mRNA levels after NDGA; type: in vivo, mouse; details: 6 hours after last dose, data not shown
Protocol: We used an acute paradigm of MPTP administration (10 mg MPTP/kg X 3, every two hours), known to cause about a 50% loss of striatal dopamine and its metabolites DOPAC and HVA and significant loss of tyrosine hydroxylase (TH) immunopositive neurons in the substantia nigra pars compacta (SNpc) on the 7th day. […] The doses that were used to determine the efficacy of NDGA against MPTP were determined by evaluation of brain HO-1 levels. Both 50 and 100 mg/kg administered twice a day induced a dose dependent increase in HO-1 mRNA levels at 6 hours after last dose of NDGA.

- Iron complex Diss. Const [1]: 2.5 ± 0.3 µM
- EC50 ([2]; Neh2-luc): 2000 nM
- EC50 [3]: ~2000 nM
Compound: CC(Cc1ccc(O)c(O)c1)C(C)Cc1ccc(O)c(O)c1 (centres unmarked) [compound 28, 4,4'-(2,3-dimethylbutane-1,4-diyl)dibenzene-1,2-diol]
- fold induction at 10 µM ([2]; at 10 µM, 3 h incubation, read-out: Neh2-luc fold activation): 15 ± 1.8
- fold induction at 10 µM ([3]; 3 h, at 10 µM, 3 h incubation, read-out: ODD-luc fold activation): 2
- concentration at which neuroprotection begins [4]: 2.5 µM
- increase in HO-1 mRNA levels (HO-1 mRNA in brain; 50 mg/kg twice a day): 1.2 fold
- increase in HO-1 mRNA levels (HO-1 mRNA in brain; 100 mg/kg twice a day): 6 fold
